Source: EP0212310A2, “Use of probucol in the preparation of a medicament for the treatment of heart arrhythmia” (priority 1985, dated 1987)
Where “and” joins values, the source holds several entries; their conditions need not be identical. Identical values can stand only once.

Tests used:
[1] = system: Patienten mit Hyperlipoproteinämie; assay: 12-lead standard ECG: QT time and heart rate in verum and placebo phases of a controlled study; assay type: in vivo
Source text: Je ein 12-Ableitungs-Standard-EKG wurde registriert. • 1. In der Placebophase • 2. In der Verumphase nach 12 Wochen • 3. In der Verumphase nach 24 Wochen • 4. In der Placebophase 42 Tage nach Absetzen von Probucol
Für jede der Aufzeichnungen wurde jeweils die frequenzkorrigierte QT-Zeit ermittelt (Bazett-Formula).
Unter Verwendung des Wilcoxon-Tests für verbundene Stichproben wurde geprüft, ob ein signifikanter Unterschied der QT-Dauer zwischen den Placebophasen und den Verumphasen besteht.

[2] = system: Patienten mit Hyperlipoproteinämie; settings: in vivo
Source text: Bei 42 Patienten mit Hyperlipoproteinämie wurde im Rahmen einer kontrollierten Studie die Wirkung von Probucol gegen Placebo geprüft.

[3] = system: Patienten mit Hyperlipoproteinämie; assay: 24-hour long-term ECG: arrhythmia frequency under placebo (control) and under verum; assay type: in vivo
Source text: Von allen 42 Patienten wurde mittels Oxfolg-Medilog II Registriergeräten ein 24-Stunden-Langzeit-EKG sowohl in der Verum- als auch in der Placebophase registriert.
Die Bänder wurden ohne Kenntnis der Therapie unter Verwendung eines Reynolds Pathfinder-Analysesytems ausgewertet, dessen Sensitivität zur Identifikation von QRS-Komplexion bei 99 %, zur Erkennung ventrikulärer Extrasystolen bei 96 % lag. Neben den normalen und extrasystolischen QRS-Komplexen wurden auch die folgenden Arrhythmieformen quantitativ erfaßt: supraventrikuläre Extrasystolen, supraventrikuläre Tachykardien, ventrikuläre Extrasystolen, R/T-Phänomene,gepaarte ventrikuläre Extrasystolen, mehrere hintereinander auftretende ventrikuläre Extrasystolen, Kammertachykardien, ventrikuläre Bigemini und Asystolien. Darüber hinaus wurden erfaßt Phasen intermittierenden Vorhofflimmerns, intermittierende Schenkelblockbilder und das Herzfrequenzverhalten.
Die stündliche Häufigkeit der verschiedenen Rhythmusstö-rungen wurden erfaßt und auf einem Computerausdruck dokumentiert. Die Analyse wurde korrigiert, indem der Vorgang jedes Mal unterbrochen wurde, wenn eine ventrikuläre Extrasystole erkannt wurde. Diese wurde dann jeweils 1 : 1 auf EKG-Papier ausgeschrieben und durch den Untersucher verifiziert. Im Falle der falsch positiven Erkennung eines Ereignisses wurde der Computerausdruck entsprechend korrigiert. Dadurch wurde die positive Korrektheit der Analyse auf 100 % gesteigert. In Tabelle 3 sind die korri gierten Ergebnisse wiedergegeben.
Bei der relativen Seltenheit komplexer tachykarder ventrikulärer Rhythmusstörungen im untersuchten Kollektiv wurde eine Bewertung des Therapieeffektes lediglich für die ventrikulären Extrasystolen vorgenommen. Hierbei ließ sich die Frage nach einem möglichen paradoxen arrhythmogenen Effekt naturgemäß für alle Patienten beantworten, die Frage nach einem antiarrhythmischen Effekt dagegen nur bei den Patienten, deren spontane Arrhythmiehäufigkeit in der Placebophase eine gewisse Häufigkeit überschritt. Hierfür wurde willkürlich eine Grenze von wenigstens einer Extrasystole/Stunde, entsprechend 24 in 24 Stunden, gefordert.
Als Hinweis auf einen möglichen paradoxen arrhythmogenen Effekt des Medikaments werteten wir eine Zunahme der Extrasystoliehäufigkeit gegenüber Placebo um wenigstens 150 %. Als Hinweis auf einen möglichen antiarrhythmischen Effekt werteten wir eine Abnahme der spontanen Extrasystoliehäufigkeit um wenigstens 60 %, als Hinweise auf einen wahrscheinlichen antiarrhythmischen Effekt eine Abnahme der Extrasystoliehäufigkeit um wenigstens 75 %.

[4] = number out of 17 patients with more than 1 VES/h under placebo

SMILES: CC(C)(Sc1cc(C(C)(C)C)c(O)c(C(C)(C)C)c1)Sc1cc(C(C)(C)C)c(O)c(C(C)(C)C)c1 [Probucol]
- Verlängerung der frequenzkontrollierten QT-Zeit ([1]; 1000 mg daily, versus placebo): ca. 5%
- Verum-2 F Mittelw. ([1]; mean, N 41, phase Verum-2): 64,32
- Verum-2 QT Mittelw. ([1]; mean, N 41, phase Verum-2): 0,40
- Verum-4 F Mittelw. ([1]; mean, N 41, phase Verum-4): 66,49
- Verum-4 QT Mittelw. ([1]; mean, N 41, phase Verum-4): 0,38
- frequenzkorrigierte QT-Zeit unter Probucol im Vergleich zu den Placebophasen ([1]; therapy phase 1 or 2 versus placebo phase 1 or 2, p = 0.002, Wilcoxon test): signifikant verlängert
- Nebenwirkungen [2]: gelegentlich Durchfall, Bauchschmerzen und Kopfschmerzen
- Patienten mit Abnahme der Extrasystolie um wenigstens 60 % ([3]; further patients out of the 8 with more than 15 VES/h spontaneous frequency): Drei
- komplexe tachykarde ventrikuläre Rhythmusstörungen unter Therapie ([3]; in the 3 patients with paradoxical arrhythmogenic effect): Bei keinem der 3 Patienten
- Patienten mit signifikanter Zunahme der spontanen Arrhythmiehäufigkeit unter Probucol (paradoxe arrhythmogene Wirkung) ([3]; in vivo): 3
- ventrikulärer Bigeminus ([3]; in vivo): bei einem Patienten unter Verum, jedoch nicht unter Placebo
- Abnahme der Extrasystoliefrequenz ([3]; individual values of the 8 patients with more than 15 VES/h spontaneous frequency): 60% and 66% and 69% and 89% and 90% and 94% and 95% and 100%
- Patienten mit statistisch signifikanter Abnahme der Extrasystoliefrequenz um mehr als 75 % ([3]; number out of 8 patients with more than 15 VES/h spontaneous frequency): 5
- Patienten mit Reduktion der Extrasystolen unter Therapie über 75 % [3, 4]: 7
- Patienten mit Reduktion der Extrasystolen zwischen 60 und 75 % [3, 4]: 3
- Patienten mit Reduktion der spontanen Extrasystoliefrequenz, die auf eine antiarrhythmische Wirkung hinweist ([3]; share of the 17 patients with more than 1 VES/h under placebo, reduction of at least 60 %): 59%
